Legend:
[1] = Erosion of swollen hydrogels (BODIPY erosion probe, time-lapse photography); assay type: physicochemical; conditions: poorly controlled BODIPY labeling protocol
Description: Degradation behavior of PEG-OND hydrogels under swelling conditions was investigated by labeling 3% of the 4-PEG-SH thiols with a BODIPY fluorophore via maleimide coupling before gelation. Gels prepared from this material are expected to have slightly lower crosslink densities and to degrade sooner when compared to gels formed without the erosion probe (FIG. 19). However, the probe-labeled macromer allowed convenient monitoring and comparison of erosion behavior under conditions relevant for biological applications. An increase in absorbance (504 nm) of the swelling buffer was observed as pieces containing the labeled PEG-thiol components were detached from the gel by rDA fragmentation (FIG. 2). […] Using combinations of linkers, it was possible to produce hydrogels with release profiles tuned between those of gels prepared from a single linker (FIG. 2C).
The 3.76 wt % solution of BODIPY-labeled 4-PEG-SH prepared above was used to form hydrogels using a method identical to unlabeled gels. Briefly, BODIPY-labeled 4-PEG-SH was combined with DMSO stocks of multivalent ONDs at equimolar concentration of thiol and electrophile. […] The absorbance of the supernatant at 504 nm was measured immediately to obtain a baseline measurement (t=0 hours), and the samples were placed into a 37° C. incubator. The absorbance of the swelling supernatant was monitored periodically by removal of 1 mL of buffer into a cuvette and measuring absorbance of the sample at 504 nm. […] This process was repeated for each sample until gel degradation was complete and the absorbance at 504 nm stabilized (100% dye released). In order to estimate the fraction of dye released from the non-degradable gel formed with bi s-EONB 8, a mock endpoint sample consisting of BODIPY-labeled 4-PEG-SH diluted to 3.5 wt % was prepared, and the absorbance at 504 nm was measured. […] The absorbance values collected over the course of the experiment were divided by the absorbance value measured after gel disintegration to obtain fractional dye release versus time. […]
The time at which the glass bead reached the bottom of the tube was recorded. […]

[2] = Oscillatory rheology of PEG-OND hydrogels; assay type: physicochemical; conditions: pH 7.2, 37° C., strain 1%, 1 rad/sec, after 2-3 hours
Method: Oscillatory rheology was used to assess the viscoelastic properties of selected PEG-OND hydrogels. […] The truncated cone was then brought in contact with the bis-EONB/4-PEG-SH mixture before setting of the gel by positioning the tool at the measuring position. The sample was inspected for spillovers and trimmed as required. A preliminary preshearing step consisting of 30 seconds at 0.1% strain and ω=0.01 rad/s was performed to ensure good contact with the gel sample. The elastic (storage) and viscous (loss) moduli, G′ and G″, respectively, were then measured as a function of time for a constant strain of 1% and an angular frequency of 1 rad/sec. The ability to store energy is described by G′, while the amount of energy dissipated is related with G″. It was observed that the sample experienced a rapid transformation from an initial state in which G′ was not much larger than G″ to a state in which G′ was clearly predominant, as shown in FIG. 5; this is consistent with gelation. The observed transformation happened in the first few minutes after preparation, even when the hydrogel continued to rigidify for up to 2-3 hours.
The linear regime of this sample was determined by performing an oscillatory strain sweep at 37° C. The frequency sweep shown in the main text was thus performed in the linear region.
[…] In both experiments, G′>>G″.

With `COC(=O)C1=C(C(=O)OC)C2(CNC(=O)CCCC(=O)NCC34OC(C(C(=O)OC)=C3C(=O)OC)C3OC34)OC1C1OC12` (centres unmarked) [Linker 8, Tetramethyl 1,1′-((glutaroylbis(azanediyl))bis(methylene))bis(3,8-dioxatricyclo[3.2.1.0^2,4]oct-6-ene-6,7-dicarboxylate)] the “Dye released from gel made with multiply-labeled 4-PEG-SH macromer” value [1] was “up to 50%” and the “Storage modulus G′ versus loss modulus G″” value [2] was “G″ was negligible in comparison with G′”.

Reference: patent US10517952B2, “Nucleophile-triggered degradable materials and methods of making and using the same” (GEORGIA TECH RESEARCH CORPORATION, priority 2014, dated 2019)
